Like-named read-outs stand apart in the source and are kept apart here.
Experiments:
[1] = system: panel of 55 breast cancer cell lines; assay: Cell growth inhibition assay (Cell Titer Glo, 72 h, 9 doses; GI50, TGI, LC50); assay type: cell-based, human; settings: Homo sapiens, read-out: GI50 (converted)
[2] = system: luminal, basal, claudin-low and ERBB2AMP breast cancer cell lines; assay: Associations of clinically relevant subtypes and response (non-parametric ANOVA or t-test on GI50 ranks); assay type: cell-based, human
In short: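 Significance was set at FDR p<0.20 after combining p-values across three test sets. Subtype–response associations came from rank-based non-parametric ANOVA or t-tests on GI50. For three-class comparisons, post-hoc tests of each group against the rest identified the most sensitive group, with FDR correction.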

**Q.** What does the source list for CC(=O)O[C@@]12CO[C@@H]1C[C@H](O)[C@@]1(C)C(=O)[C@H](O)C3=C(C)[C@@H](OC(=O)[C@H](O)[C@@H](NC(=O)OC(C)(C)C)c4ccccc4)C[C@@](O)([C@@H](OC(=O)c4ccccc4)[C@H]21)C3(C)C [Docetaxel]?
**A.** GI50 ([1]; 600MPE cell line, censored GI50 values): 97.7 nM; GI50 ([1]; AU565, AU565 cell line, censored GI50 values): 5.25 nM; GI50 ([1]; AU565, cell line AU565): 5.25 nM; GI50 ([1]; BT-474, BT474 cell line, censored GI50 values): 6.31 nM; GI50 ([1]; BT-474, cell line BT474): 6.31 nM; GI50 ([1]; BT-483, BT483 cell line, censored GI50 values): 23.4 nM; GI50 ([1]; BT-483, cell line BT483): 23.4 nM; GI50 ([1]; CAMA-1, CAMA1 cell line, censored GI50 values): 5.62 nM; GI50 ([1]; CAMA-1, cell line CAMA1): 5.62 nM; GI50 ([1]; HCC38, HCC38 cell line, censored GI50 values): 2.04 nM; GI50 ([1]; HCC38, cell line HCC38): 2.04 nM; GI50 ([1]; HCC70, HCC70 cell line, censored GI50 values): 5.13 nM; GI50 ([1]; HCC70, cell line HCC70): 5.13 nM; GI50 ([1]; HCC202, HCC202 cell line, censored GI50 values): 3.72 nM; GI50 ([1]; HCC202, cell line HCC202): 3.72 nM; GI50 ([1]; HCC1143, HCC1143 cell line, censored GI50 values): 11 nM; GI50 ([1]; HCC1143, cell line HCC1143): 11 nM; GI50 ([1]; HCC1187, HCC1187 cell line, censored GI50 values): 2.51 nM; GI50 ([1]; HCC1187, cell line HCC1187): 2.51 nM; GI50 ([1]; HCC1395, HCC1395 cell line, censored GI50 values): 5.62 nM; GI50 ([1]; HCC1395, cell line HCC1395): 5.62 nM; GI50 ([1]; HCC1419, HCC1419 cell line, censored GI50 values): 16.6 nM; GI50 ([1]; HCC1419, cell line HCC1419): 16.6 nM; GI50 ([1]; HCC1428, HCC1428 cell line, censored GI50 values): 5010 nM; GI50 ([1]; HCC1428, cell line HCC1428): 5010 nM; GI50 ([1]; HCC1500, HCC1500 cell line, censored GI50 values): 2.75 nM; GI50 ([1]; HCC1500, cell line HCC1500): 2.75 nM; GI50 ([1]; HCC1806, HCC1806 cell line, censored GI50 values): 2.57 nM; GI50 ([1]; HCC1806, cell line HCC1806): 2.57 nM; GI50 ([1]; HCC1954, HCC1954 cell line, censored GI50 values): 1.66 nM; GI50 ([1]; HCC1954, cell line HCC1954): 1.66 nM; GI50 ([1]; HCC2185 cell line, censored GI50 values): 3.02 nM; GI50 ([1]; HCC3153 cell line, censored GI50 values): 9.77 nM; GI50 ([1]; LY2 cell line, censored GI50 values): 4.27 nM; GI50 ([1]; MCF7, MCF7 cell line, censored GI50 values): 12.3 nM; GI50 ([1]; MCF7, cell line MCF7): 12.3 nM; GI50 ([1]; MDA-MB-134-VI, MDAMB134VI cell line, censored GI50 values): 23.4 nM; GI50 ([1]; MDA-MB-175-VII, MDAMB175VII cell line, censored GI50 values): 15.8 nM; GI50 ([1]; MDA-MB-231, MDAMB231 cell line, censored GI50 values): 2.82 nM; GI50 ([1]; MDA-MB-231, cell line MDAMB231): 2.82 nM; GI50 ([1]; MDA-MB-361, MDAMB361 cell line, censored GI50 values): 5.62 nM; GI50 ([1]; MDA-MB-361, cell line MDAMB361): 5.62 nM; GI50 ([1]; MDA-MB-415, MDAMB415 cell line, censored GI50 values): 2.88 nM; GI50 ([1]; MDA-MB-415, cell line MDAMB415): 2.88 nM; GI50 ([1]; MDA-MB-436, MDAMB436 cell line, censored GI50 values): 17 nM; GI50 ([1]; MDA-MB-436, cell line MDAMB436): 17 nM; GI50 ([1]; MDA-MB-453, MDAMB453 cell line, censored GI50 values): 4.37 nM; GI50 ([1]; MDA-MB-453, cell line MDAMB453): 4.37 nM; GI50 ([1]; MDA-MB-468, MDAMB468 cell line, censored GI50 values): 2.88 nM; GI50 ([1]; MDA-MB-468, cell line MDAMB468): 2.88 nM; GI50 ([1]; SK-BR-3, SKBR3 cell line, censored GI50 values): 7.59 nM; GI50 ([1]; SK-BR-3, cell line SKBR3): 7.59 nM; GI50 ([1]; SUM52PE, SUM52PE cell line, censored GI50 values): 1.82 nM; GI50 ([1]; SUM52PE, cell line SUM52PE): 1.82 nM; GI50 ([1]; SUM149PT, SUM149PT cell line, censored GI50 values): 1.74 nM; GI50 ([1]; SUM149PT, cell line SUM149PT): 1.74 nM; GI50 ([1]; SUM185PE, SUM185PE cell line, censored GI50 values): 5010 nM; GI50 ([1]; SUM185PE, cell line SUM185PE): 5010 nM; GI50 ([1]; SUM1315MO2, SUM1315MO2 cell line, censored GI50 values): 2.95 nM; GI50 ([1]; SUM-159-PT, SUM159PT cell line, censored GI50 values): 4.57 nM; GI50 ([1]; SUM-159-PT, cell line SUM159PT): 4.57 nM; GI50 ([1]; UACC-812, UACC812 cell line, censored GI50 values): 3.24 nM; GI50 ([1]; UACC-812, cell line UACC812): 3.24 nM; GI50 ([1]; UACC-893, UACC893 cell line, censored GI50 values): 11.5 nM; GI50 ([1]; UACC-893, cell line UACC893): 11.5 nM; GI50 ([1]; ZR-75-1, ZR751 cell line, censored GI50 values): 28.2 nM; GI50 ([1]; ZR-75-1, cell line ZR751): 28.2 nM; GI50 ([1]; ZR-75-30, ZR7530 cell line, censored GI50 values): 3.98 nM; GI50 ([1]; ZR-75-30, cell line ZR7530): 3.98 nM; GI50 ([1]; ZR-75B, ZR75B cell line, censored GI50 values): 15.5 nM; GI50 ([1]; ZR-75B, cell line ZR75B): 15.5 nM; GI50 ([1]; cell line 600MPE): 97.7 nM; GI50 ([1]; cell line HCC2185): 3.02 nM; GI50 ([1]; cell line HCC3153): 9.77 nM; GI50 ([1]; cell line LY2): 4.27 nM; GI50 ([1]; cell line MDAMB134V): 23.4 nM; GI50 ([1]; cell line MDAMB175V): 15.8 nM; GI50 ([1]; cell line SUM1315MO): 2.95 nM; subtype-specific response (sensitivity by transcriptional subtype) ([2]; GI50 across subtypes): preferential activity in basal and/or claudin-low cell lines; Subtype specificity ([2]; Table 6, most sensitive subtype, FDR p<0.20): Basal
